# According to patent publication US20240158370A1, “CK1 alpha AND DUAL CK1 alpha / GSPT1 DEGRADING COMPOUNDS” (Innovo Therapeutics, Inc., priority 2022, published 2024):
# Experiments:
# CK1α = target: T1, CK1α (Homo sapiens, UniProt P48729+Q96SW2); assay: HiBiT degradation assay, CK1α, Procedure A; type: cell-based
# T1 construct: CSNK1A1-HiBit KI HEK293(LgBit) Cells; host or cells: HEK293(LgBit) knock-in cells
# Description: (§1) Compounds were spotted onto Cornin 384-Well, Cell Culture-Treated, Flat-Bottom, Low Flange Microplate (Fisher Scientific, Catalog #07-201-013) using a Tecan D300e digital dispenser. Ten-point dose response curves spanning from 10 μM to 0.005 μM with a 0.1% DMSO tolerance were used.
# (§2) Cells were dissociated from tissue 182 cm^2 Tissue Culture Flask (CellTreat Catalog #229351) by washing the cells with PBS (Fisher Scientific Catalog #BP3994) followed by dissociation with Trypsin-EDTA (0.25%) (Thermo Scientific Catalog #25200056). Trysin was neutralized and cells were resuspended with DMEM+10% FBS. Cells were centrifuged for 5 minutes at 1200 RPMs. Cell culture media was aspirated off and cells were resuspended with DMEM+10% FBS. Cell density was determined using a Denovix CellDrop BF cell counter. Cell density was adjusted to 1×10^6 cells/ml. 40 μl of cells was added to compound treated tissue culture plates and incubated for six hours at 37° C. After six hours, cell culture plates were removed from tissue culture incubator and cooled to room temperature. 40 μl of Nano-GloHiBiT Lytic Detection Reagent (Promega, Catalog #N3040) was added to each well. Plates were placed on an orbital shaker (600 rpm) for 20 minutes. Luminescence was measured using an Envsion plate reader (Perkin Elmer). DC50 curves and Ymin were generated using a 4-parameter curve fit with GraphPad Prism software (Prism Corporation).
# (§3) Results from the HiBiT assay (DC50 (nM) and Ymin (% remaining)) are shown below. All CK1α data was generated according to Procedure A. GSPT1 data for Examples 1-600, 603-620 and 703-705 was generated according to Procedure A. GSPT1 data for Examples 601, 621-702 and 706-735 was generated according to Procedure B.
# GSPT1 = GSPT1 (Homo sapiens, UniProt P15170+Q96SW2); assay: HiBiT degradation assay, GSPT1, Procedure A; type: cell-based; parameters: HiBit-GSPT1 KI HEK293(LgBit) Cells; host or cells: HEK293(LgBit) knock-in cells; conditions: six hours incubation
# Sequence of GSPT1 (P15170 whole entry): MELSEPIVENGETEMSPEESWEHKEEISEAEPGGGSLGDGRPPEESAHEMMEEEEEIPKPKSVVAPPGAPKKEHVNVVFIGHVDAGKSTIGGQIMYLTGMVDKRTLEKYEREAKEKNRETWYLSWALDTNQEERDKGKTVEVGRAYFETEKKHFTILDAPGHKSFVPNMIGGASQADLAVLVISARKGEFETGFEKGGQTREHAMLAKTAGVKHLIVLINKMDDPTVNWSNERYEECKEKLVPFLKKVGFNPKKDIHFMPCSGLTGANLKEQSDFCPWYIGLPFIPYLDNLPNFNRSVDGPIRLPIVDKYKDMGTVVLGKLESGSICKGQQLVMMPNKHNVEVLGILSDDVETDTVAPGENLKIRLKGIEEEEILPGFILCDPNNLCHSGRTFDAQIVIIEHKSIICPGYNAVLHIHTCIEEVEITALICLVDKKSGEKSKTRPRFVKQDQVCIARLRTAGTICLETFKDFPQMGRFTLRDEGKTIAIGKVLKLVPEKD
# Sequence of GSPT1 (Q96SW2 whole entry): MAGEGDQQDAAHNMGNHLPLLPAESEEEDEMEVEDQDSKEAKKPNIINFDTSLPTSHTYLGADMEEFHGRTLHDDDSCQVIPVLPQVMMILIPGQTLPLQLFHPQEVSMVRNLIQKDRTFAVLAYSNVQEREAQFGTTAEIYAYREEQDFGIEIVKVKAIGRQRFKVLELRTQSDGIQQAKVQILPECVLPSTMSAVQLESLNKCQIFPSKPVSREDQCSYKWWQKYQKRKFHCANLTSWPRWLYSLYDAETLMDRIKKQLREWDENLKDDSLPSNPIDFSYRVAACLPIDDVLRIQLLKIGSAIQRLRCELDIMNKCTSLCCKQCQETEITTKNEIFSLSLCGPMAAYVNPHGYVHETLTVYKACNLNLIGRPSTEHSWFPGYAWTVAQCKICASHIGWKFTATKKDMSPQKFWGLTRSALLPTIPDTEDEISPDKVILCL
# Sequence of GSPT1 (Q16531 whole entry partner): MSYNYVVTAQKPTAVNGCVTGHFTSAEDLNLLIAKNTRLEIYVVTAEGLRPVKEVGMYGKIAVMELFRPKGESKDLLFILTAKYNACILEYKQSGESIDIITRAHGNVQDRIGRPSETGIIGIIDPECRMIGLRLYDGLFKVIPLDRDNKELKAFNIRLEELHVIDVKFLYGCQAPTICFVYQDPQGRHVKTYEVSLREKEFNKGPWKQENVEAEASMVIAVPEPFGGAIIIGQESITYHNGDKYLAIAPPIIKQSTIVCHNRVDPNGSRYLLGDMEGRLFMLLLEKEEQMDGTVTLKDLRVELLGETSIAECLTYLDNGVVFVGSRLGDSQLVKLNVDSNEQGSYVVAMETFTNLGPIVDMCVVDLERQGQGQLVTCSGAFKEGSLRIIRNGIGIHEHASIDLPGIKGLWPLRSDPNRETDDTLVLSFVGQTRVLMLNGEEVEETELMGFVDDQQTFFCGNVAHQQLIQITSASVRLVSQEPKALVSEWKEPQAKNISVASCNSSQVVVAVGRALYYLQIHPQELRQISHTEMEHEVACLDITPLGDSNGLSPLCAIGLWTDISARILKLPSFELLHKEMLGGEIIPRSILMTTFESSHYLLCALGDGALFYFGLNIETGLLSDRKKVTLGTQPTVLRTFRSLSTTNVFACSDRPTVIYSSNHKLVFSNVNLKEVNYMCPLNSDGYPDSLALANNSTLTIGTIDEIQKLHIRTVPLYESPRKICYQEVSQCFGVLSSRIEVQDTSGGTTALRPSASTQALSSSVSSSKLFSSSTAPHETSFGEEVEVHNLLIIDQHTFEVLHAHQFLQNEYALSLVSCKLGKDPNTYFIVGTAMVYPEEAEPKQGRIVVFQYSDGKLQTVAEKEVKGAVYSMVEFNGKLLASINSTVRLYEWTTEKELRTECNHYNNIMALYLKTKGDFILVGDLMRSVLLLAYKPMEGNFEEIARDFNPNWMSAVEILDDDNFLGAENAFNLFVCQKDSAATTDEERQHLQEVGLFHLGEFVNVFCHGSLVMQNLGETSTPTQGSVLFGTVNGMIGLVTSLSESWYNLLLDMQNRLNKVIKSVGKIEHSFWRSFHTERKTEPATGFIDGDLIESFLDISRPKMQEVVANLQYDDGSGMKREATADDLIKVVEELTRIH
# Description: as §1, §2, §3
# T1 sequence (P48729 whole entry): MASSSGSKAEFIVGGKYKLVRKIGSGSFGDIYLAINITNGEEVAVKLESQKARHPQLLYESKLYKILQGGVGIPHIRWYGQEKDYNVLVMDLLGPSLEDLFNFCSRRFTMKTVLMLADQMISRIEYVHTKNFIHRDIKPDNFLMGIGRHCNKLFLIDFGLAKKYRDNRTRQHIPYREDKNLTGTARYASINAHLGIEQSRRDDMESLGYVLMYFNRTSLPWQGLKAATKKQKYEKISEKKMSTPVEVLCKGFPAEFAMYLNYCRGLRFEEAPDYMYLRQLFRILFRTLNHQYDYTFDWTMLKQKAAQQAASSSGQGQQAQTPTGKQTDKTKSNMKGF
# T1 sequence (Q96SW2 whole entry): as the sequence (Q96SW2 whole entry) above
# T1 sequence (Q16531 whole entry partner): as the sequence (Q16531 whole entry partner) above
SMILES,CK1α Ymin (CK1α; six hours incubation),DC50 (CK1α; six hours incubation),DC50 (GSPT1),GSPT1 Ymin (GSPT1),CK1α Ymin (CK1α; six hours),DC50 (CK1α; six hours)
"Cn1ncc(-c2ccc3c(c2)CN(C2CCC(=O)NC2=O)C3=O)c1-c1ccccc1 (stereo not drawn) [Example 1, 3-(5-(1-Methyl-5-phenyl-1H-pyrazol-4-yl)-1-oxoisoindolin-2-yl)piperidine-2,6-dione]",D (D = >10- 25% remaining),< 25 nM,≥ 25 nM,F (F = >75-100% remaining),,
"Cn1cnc(-c2ccc3c(c2)CN(C2CCC(=O)NC2=O)C3=O)c1-c1ccccc1 (stereo not drawn) [Example 2, 3-(5-(1-Methyl-5-phenyl-1H-imidazol-4-yl)-1-oxoisoindolin-2-yl)piperidine-2,6-dione]",C (C = 0-10% remaining),< 25 nM,< 25 nM,E (E = >25-75% remaining),,
"Cn1cc(-c2ccc3c(c2)CN(C2CCC(=O)NC2=O)C3=O)c(-c2ccccc2)n1 (stereo not drawn) [Example 3, 3-(5-(1-Methyl-3-phenyl-1H-pyrazol-4-yl)-1-oxoisoindolin-2-yl) piperidine-2,6-dione]",E (E = >25-75% remaining),< 25 nM,≥ 25 nM,F (F = >75-100% remaining),,
"O=C1CCC(N2Cc3cc(-c4cscc4-c4ccccc4)ccc3C2=O)C(=O)N1 (stereo not drawn) [Example 4, 3-(1-Oxo-5-(4-phenylthiophen-3-yl)isoindolin-2-yl)piperidine-2,6-dione]",E (E = >25-75% remaining),≥ 25 nM,≥ 25 nM,F (F = >75-100% remaining),,
"O=C1CCC(N2Cc3cc(-c4c[nH]nc4-c4ccccc4)ccc3C2=O)C(=O)N1 (stereo not drawn) [Example 5, 3-(1-Oxo-5-(3-phenyl-1H-pyrazol-4-yl)isoindolin-2-yl) piperidine-2,6-dione]",D (D = >10- 25% remaining),< 25 nM,≥ 25 nM,F (F = >75-100% remaining),,
"O=C1CCC(N2Cc3cc(-c4ccnn4-c4ccccc4)ccc3C2=O)C(=O)N1 (stereo not drawn) [Example 6, 3-(1-oxo-5-(1-phenyl-1H-pyrazol-5-yl)isoindolin-2-yl)piperidine-2,6-dione]",E (E = >25-75% remaining),≥ 25 nM,≥ 25 nM,F (F = >75-100% remaining),,
"Cn1ncc(-c2ccc3c(c2)CN(C2CCC(=O)NC2=O)C3=O)c1-c1ccc(F)cc1 (stereo not drawn) [Example 8, 3-(5-(5-(4-fluorophenyl)-1-methyl-1H-pyrazol-4-yl)-1-oxoisoindolin-2-yl)piperidine-2,6-dione]",E (E = >25-75% remaining),< 25 nM,≥ 25 nM,F (F = >75-100% remaining),,
"O=C1CCC(N2Cc3cc(-c4cnn(-c5ccccc5)c4)ccc3C2=O)C(=O)N1 (stereo not drawn) [Example 9, 3-(1-Oxo-5-(1-phenyl-1H-pyrazol-4-yl)isoindolin-2-yl)piperidine-2,6-dione]",E (E = >25-75% remaining),≥ 25 nM,≥ 25 nM,E (E = >25-75% remaining),,
"Cn1cnc(-c2ccc3c(c2)CN(C2CCC(=O)NC2=O)C3=O)c1-c1ccc(F)cc1 (stereo not drawn) [Example 10, 3-(5-(5-(4-Fluorophenyl)-1-methyl-1H-imidazol-4-yl)-1-oxoisoindolin-2-yl)piperidine-2,6-dione]",C (C = 0-10% remaining),< 25 nM,≥ 25 nM,E (E = >25-75% remaining),,
Cc1[nH]nc(-c2ccc3c(c2)CN(C2CCC(=O)NC2=O)C3=O)c1-c1ccccc1 (stereo not drawn) [Example 11],C (C = 0-10% remaining),< 25 nM,< 25 nM,D (D = >10- 25% remaining),,
"O=C1CCC(N2Cc3cc(-c4nc[nH]c4-c4ccccc4)ccc3C2=O)C(=O)N1 (stereo not drawn) [Example 13, 3-(1-Oxo-5-(5-phenyl-1H-imidazol-4-yl)isoindolin-2-yl) piperidine-2,6-dione]",C (C = 0-10% remaining),< 25 nM,< 25 nM,E (E = >25-75% remaining),,
"O=C1CCC(N2Cc3cc(-c4ncoc4-c4ccccc4)ccc3C2=O)C(=O)N1 (stereo not drawn) [Example 15, 3-(1-oxo-5-(5-phenyloxazol-4-yl)isoindolin-2-yl)piperidine-2,6-dione]",C (C = 0-10% remaining),< 25 nM,< 25 nM,E (E = >25-75% remaining),,
"Cn1cnc(-c2cc3c(s2)C(=O)N(C2CCC(=O)NC2=O)C3)c1-c1ccccc1 (stereo not drawn) [Example 16, 3-(2-(1-methyl-5-phenyl-1H-imidazol-4-yl)-6-oxo-4,6-dihydro-5H-thieno[2,3-c]pyrrol-5-yl)piperidine-2,6-dione]",E (E = >25-75% remaining),≥ 25 nM,≥ 25 nM,F (F = >75-100% remaining),,
"Cc1nn(C)c(-c2ccc3c(c2)CN(C2CCC(=O)NC2=O)C3=O)c1-c1ccccc1 (stereo not drawn) [Example 18, 3-(5-(1,3-Dimethyl-4-phenyl-1H-pyrazol-5-yl)-1-oxoisoindolin-2-yl)piperidine-2,6-dione]",E (E = >25-75% remaining),≥ 25 nM,≥ 25 nM,E (E = >25-75% remaining),,
"Cn1cnc(-c2ccn3c(=O)n(C4CCC(=O)NC4=O)nc3c2)c1-c1ccccc1 (stereo not drawn) [Example 20, 3-(7-(1-Methyl-5-phenyl-1H-imidazol-4-yl)-3-oxo-[1,2,4]triazolo[4,3-a]pyridin-2 (3H)-yl)piperidine-2,6-dione]",E (E = >25-75% remaining),≥ 25 nM,≥ 25 nM,E (E = >25-75% remaining),,
"Cn1cnc(-c2ccccc2)c1-c1ccc2c(c1)CN(C1CCC(=O)NC1=O)C2=O (stereo not drawn) [Example 21, 3-(5-(1-Methyl-4-phenyl-1H-imidazol-5-yl)-1-oxoisoindolin-2-yl)piperidine-2,6-dione]",E (E = >25-75% remaining),≥ 25 nM,≥ 25 nM,C (C = 0-10% remaining),,
"CC(C)Cn1cnc(-c2ccc3c(c2)CN(C2CCC(=O)NC2=O)C3=O)c1-c1ccccc1 (stereo not drawn) [Example 22, 3-(5-(1-Isobutyl-5-phenyl-1H-imidazol-4-yl)-1-oxoisoindolin-2-yl)piperidine-2,6-dione]",C (C = 0-10% remaining),< 25 nM,< 25 nM,E (E = >25-75% remaining),,
"O=C1CCC(N2Cc3cc(-c4ncsc4-c4ccccc4)ccc3C2=O)C(=O)N1 (stereo not drawn) [Example 23, 3-(1-Oxo-5-(5-phenylthiazol-4-yl)isoindolin-2-yl) piperidine-2,6-dione]",D (D = >10- 25% remaining),< 25 nM,≥ 25 nM,E (E = >25-75% remaining),,
"Cn1cnc(-c2ccc3c(c2)CN([C@@H]2CCC(=O)NC2=O)C3=O)c1-c1ccc(F)cc1 [Example 24, (R)-3-(5-(5-(4-fluorophenyl)-1-methyl-1H-imidazol-4-yl)-1-oxoisoindolin-2-yl) piperidine-2,6-dione]",C (C = 0-10% remaining),< 25 nM,≥ 25 nM,E (E = >25-75% remaining),,
"CCn1cnc(-c2ccc3c(c2)CN(C2CCC(=O)NC2=O)C3=O)c1-c1ccccc1 (stereo not drawn) [Example 26, 3-(5-(1-Ethyl-5-phenyl-1H-imidazol-4-yl)-1-oxoisoindolin-2-yl)piperidine-2,6-dione]",C (C = 0-10% remaining),< 25 nM,< 25 nM,E (E = >25-75% remaining),,
"O=C1CCC(N2Cc3cc(-c4cnn(C(F)F)c4-c4ccccc4)ccc3C2=O)C(=O)N1 (stereo not drawn) [Example 27, 3-(5-(1-(difluoromethyl)-5-phenyl-1H-pyrazol-4-yl)-1-oxoisoindolin-2-yl)piperidine-2,6-dione]",D (D = >10- 25% remaining),< 25 nM,≥ 25 nM,F (F = >75-100% remaining),,
"Cn1c(-c2ccc3c(c2)CN(C2CCC(=O)NC2=O)C3=O)cnc1-c1ccccc1 (stereo not drawn) [Example 28, 3-(5-(1-methyl-2-phenyl-1H-imidazol-5-yl)-1-oxoisoindolin-2-yl)piperidine-2,6-dione]",E (E = >25-75% remaining),≥ 25 nM,≥ 25 nM,F (F = >75-100% remaining),,
"Cn1nc(-c2ccc3c(c2)CN(C2CCC(=O)NC2=O)C3=O)cc1-c1ccc(C(F)(F)F)cc1 (stereo not drawn) [Example 495, 3-(5-(1-methyl-5-(4-(trifluoromethyl)phenyl)-1H-pyrazol-3-yl)-1-oxoisoindolin-2-yl)piperidine-2,6-dione]",,,,,C (C = 0-10% remaining),< 25 nM
